Reference: patent US20170260285A1, “METHODS FOR TREATING CANCER” (UNIVERSITY OF IOWA RESEARCH FOUNDATION, priority 2014, published 2017)
Entries after “also recorded” stand apart in the source; their conditions may differ.

Legend:
[1] = system: Cal-27 HNSCC cells; assay: IL-6 secretion by ELISA in Cal-27 cells; assay type: cell-based, human; conditions: for erlotinib-induced IL-6: agent pre-treatment then erlotinib 5 μM 48 h; for baseline IL-6 (absence of erlotinib): agent 2 h (1 h for caspase inhibitors, NAC, CAT) then DMSO 48 h
Source text: (§1) Cal-27 and FaDu human head and neck squamous carcinoma (HNSCC) cells were obtained from the American Type Culture Collection (ATCC, Manassas, Va.). SQ20B HNSCC cells (16) were a gift from Dr. Anjali Gupta (Department of Radiation Oncology, The University of Iowa). All HNSCC cell lines are EGFR positive and are sensitive to EGFR inhibitors. All cell lines were authenticated by the ATCC for viability (before freezing and after thawing), growth, morphology and isoenzymology. Cells were stored according to the supplier's instructions and used over a course of no more than 3 months after resuscitation of frozen aliquots. Cultures were maintained in 5% CO2 and air humidified in a 37° C. incubator.
(§2) Erlotinib (ERL; Tarceva) and anakinra (ANA; Kineret) were obtained from the inpatient pharmacy at the University of Iowa Hospitals and Clinics. Drugs were added to cells at final concentrations of 5 μM ERL and 10 ng/mL or 50 ng/mL ANA. Human IgG and […] (DMSO) were used as controls and were obtained from Sigma Aldrich. Human IL-1α, IL-1β, and IL-18Rα neutralizing antibodies were obtained from R&D Systems and were used at a concentration of 0.5 μg/mL. Recombinant human IL-1α was obtained from Life Technologies and administered at a concentration of 1 ng/mL. Ac-Y-VAD-cho, a caspase-1 inhibitor (CalBioChem), was suspended in DMSO and added at a concentration of […], a pan-caspase inhibitor (Promega) was diluted in DMSO and added at a concentration of 20 μM. TLR agonists were used at the following concentrations: Pam3CSK4 (200ng/mL), FSL-1 (100 ng/mL), Poly I:C (20 μg/mL), LPS (200 ng/mL), Flagellin (200 ng/mL), Gardiquimod (1 μg/mL), CL075 (1 μg/mL), and E. coli DNA (1 μg/mL). All TLR agonists were obtained from InvivoGen. The required volume of each drug was added directly to complete cell culture media on cells to achieve the indicated final concentrations.
(§3) Levels of IL-6, IL-1α and IL-1β of treated cells were determined by ELISA. The culture media of the treated cells were harvested and each cytokine was detected according to the manufacturer's protocol using the Human Quantikine ELISA Kits (R&D Systems, Minneapolis, Minn.).
as §1, with “(20)” for “(16)”
(§4) Erlotinib (ERL; Tarceva), anakinra (ANA; Kineret) and N-acetyl cysteine (NAC; Acetadote) were obtained from the inpatient pharmacy at the University of Iowa Hospitals and Clinics. Drugs were added to cells at final concentrations of 5 μM ERL, 10 ng/mL or 50 ng/mL ANA and 20 mM NAC. Human IgG and […] (DMSO) were used as controls and were obtained from Sigma Aldrich. Pegylated catalase (CAT; Sigma Aldrich) was used at a final concentration of 100 U/mL. Human IL-1α, IL-1β, and IL-18Ra neutralizing antibodies were obtained from R&D Systems and were used at a concentration of 0.5 μg/mL. Recombinant human IL-1α was obtained from Life Technologies and administered at a concentration of 1 ng/mL. Ac-Y-VAD-cho (CalBioChem) was suspended in DMSO and used at 5 μM. Z-VAD-fmk (Promega) was diluted in DMSO and used at 20 μM. TLR agonists were used at the following concentrations: Pam3CSK4 (200 ng/mL), FSL-1 (100 ng/mL), Poly I:C (20 μg/mL), LPS (200 ng/mL), Flagellin (200 ng/mL), Gardiquimod (1 μg/mL), CL075 (1 μg/mL), and E. coli DNA (1 μg/mL). All TLR agonists were obtained from InvivoGen. […]

[2] = system: SQ20B HNSCC cells; assay: IL-1α release by ELISA in SQ20B cells; assay type: cell-based, human; conditions: agent 1 h then erlotinib 5 μM 48 h
Experimental: as §2, §3
(§5) Erlotinib (ERL; Tarceva), anakinra (ANA; Kineret) and N-acetyl cysteine (NAC; Acetadote) were obtained from the inpatient pharmacy at the University of Iowa Hospitals and Clinics. Drugs were added to cells at final concentrations of 5 μM ERL, 10 ng/mL or 50 ng/mL ANA and 20 mM NAC. Human IgG and […] (DMSO) were used as controls and were obtained from Sigma Aldrich. Pegylated catalase (CAT; Sigma Aldrich) was used at a final concentration of 100 U/mL. Human IL-1α, IL-1β, and IL-18Ra neutralizing antibodies were obtained from R&D Systems and were used at a concentration of 0.5 μg/mL. Recombinant human IL-1α was obtained from Life Technologies and administered at a concentration of 1 ng/mL. Ac-Y-VAD-cho (CalBioChem) was suspended in DMSO and used at 5 μM. Z-VAD-fmk (Promega) was diluted in DMSO and used at 20 μM. TLR agonists were used at the following concentrations: Pam3CSK4 (200 ng/mL), FSL-1 (100 ng/mL), Poly I:C (20 μg/mL), LPS (200 ng/mL), Flagellin (200 ng/mL), Gardiquimod (1 μg/mL), CL075 (1 μg/mL), and E. coli DNA (1 μg/mL). All TLR agonists were obtained from InvivoGen. The required volume of each drug was added directly to complete cell culture media on cells to achieve the indicated final concentrations.
(§6) Levels of IL-6, IL-1α and IL-1β of treated cells were determined by ELISA. The culture media of the treated cells were harvested and each cytokine was detected according to the manufacturer's protocol using Human Quantikine ELISA Kits (R&D Systems, Minneapolis, Minn.).

[3] = system: SQ20B HNSCC cells; assay: IL-6 secretion by ELISA in SQ20B cells; assay type: cell-based, human; conditions: for erlotinib-induced IL-6: agent pre-treatment then erlotinib 5 μM 48 h; for baseline IL-6 (absence of erlotinib): agent 2 h (1 h for caspase inhibitors, NAC, CAT) then DMSO 48 h
Source text: as §1, §2, §3
as §1, with “(20)” for “(16)”
as §4

[4] = system: Cal-27 HNSCC cells; assay: IL-1α release by ELISA in Cal-27 cells; assay type: cell-based, human; conditions: for erlotinib-induced IL-1α release: agent 1 h then erlotinib 5 μM 48 h
Experimental: as §2, §3, §5, §6

[5] = system: HNSCC tumor cell lines; conditions: previous studies (ref. 10); cited from earlier work
[6] = system: SQ20B and Cal27 cells; assay type: cell-based
Experimental: To determine whether cell death is responsible for IL-1α release, we used Z-VAD-fmk, a pan-caspase inhibitor, to prevent cell death. We also tested Ac-Y-VAD-cho, caspase-1 inhibitor, to assess inflammasome involvement. After testing various combinations of these inhibitors, we found an optimal concentration of 20 μM Z-VAD and 5μM Y-VAD. […] To confirm that the pan-caspase inhibitor was effectively blocking cell death, we performed a clonogenic assay with erlotinib- and Z-VAD-treated cells in SQ20B cells.

Row | Molecule | erlotinib-induced IL-6 [1] | erlotinib-induced IL-1α release [2] | erlotinib-induced IL-6 [3] | erlotinib-induced IL-1α release [4] | other results
1 | CC(=O)N[C@@H](CS)C(=O)O [NAC, N-acetyl cysteine] | significantly suppressed | significantly suppressed | significantly suppressed | significantly suppressed | 
2 | CS(=O)(=O)CCNCc1ccc(-c2ccc3ncnc(Nc4ccc(OCc5cccc(F)c5)c(Cl)c4)c3c2)o1 [lapatinib] |  |  |  |  | IL-6 expression/secretion in HNSCC cell lines treated with EGFRIs [5]: significant upregulation
3 | Ac-Y-VAD-cho | did not affect | did not see a decrease; also recorded: not observed | did not affect | did not see a decrease; also recorded: not observed | highest dose that did not result in toxicity (optimal concentration) [6]: 5 µM; baseline IL-1α levels ([4]; agent 1 h then DMSO 48 h): not observed
4 | anakinra | significantly reduced; also recorded: effectively blocked |  | significantly reduced; also recorded: effectively blocked |  | baseline IL-6 (absence of erlotinib) [1]: significantly reduced; erlotinib-induced IL-6 ([1]; listed as Anakinra): effectively blocked; baseline IL-6 (absence of erlotinib) [3]: significantly reduced; erlotinib-induced IL-6 ([3]; listed as Anakinra): effectively blocked
5 | panitumumab |  |  |  |  | IL-6 expression/secretion in HNSCC cell lines treated with EGFRIs [5]: significant upregulation
6 | Exogenous IL-1α: Recombinant human IL-1α from Life Technologies, 1 ng/mL (protein, UniProt P01583 113-271, looked up) Interleukin-1 alpha: SAPFSFLSNVKYNFMRIIKYEFILNDALNQSIIRANDQYLTAAALHNLDEAVKFDMGAYKSSKDDAKITVILRISKTQLYVTAQDEDQPVLLKEMPEIPKTITGSETNLLFFWETHGTKNYFTSVAHPNLFIATKQDYWVCLAGGPPSITDFQILENQA | increased |  | increased |  | baseline IL-6 (absence of erlotinib) [1]: increased; baseline IL-6 (absence of erlotinib) [3]: increased
7 | CAT: Pegylated catalase (Sigma Aldrich), antioxidant, 100 U/mL (protein, UniProt P00432 2-527, looked up, PEG, Pegylated catalase (Sigma Aldrich), antioxidant, 100 U/mL) Catalase: ADNRDPASDQMKHWKEQRAAQKPDVLTTGGGNPVGDKLNSLTVGPRGPLLVQDVVFTDEMAHFDRERIPERVVHAKGAGAFGYFEVTHDITRYSKAKVFEHIGKRTPIAVRFSTVAGESGSADTVRDPRGFAVKFYTEDGNWDLVGNNTPIFFIRDALLFPSFIHSQKRNPQTHLKDPDMVWDFWSLRPESLHQVSFLFSDRGIPDGHRHMNGYGSHTFKLVNANGEAVYCKFHYKTDQGIKNLSVEDAARLAHEDPDYGLRDLFNAIATGNYPSWTLYIQVMTFSEAEIFPFNPFDLTKVWPHGDYPLIPVGKLVLNRNPVNYFAEVEQLAFDPSNMPPGIEPSPDKMLQGRLFAYPDTHRHRLGPNYLQIPVNCPYRARVANYQRDGPMCMMDNQGGAPNYYPNSFSAPEHQPSALEHRTHFSGDVQRFNSANDDNVTQVRTFYLKVLNEEQRKRLCENIAGHLKDAQLFIQKKAVKNFSDVHPEYGSRIQALLDKYNEEKPKNAVHTYVQHGSHLSAREKANL | significantly suppressed | significantly suppressed | significantly suppressed | significantly suppressed | 
